The values below come from article PMC10650850, “Discovery, Structure–Activity Relationship and In Vitro Anticancer Activity of Small-Molecule Inhibitors of the Protein–Protein Interactions between AF9/ENL and AF4 or DOT1L” (Cancers, 2023).

By IC50 is commonly meant the concentration at which inhibition is half-maximal. What is called EC50 is the concentration at which the effect is half-maximal.

Assay [1] has as its target T1, AF9-DOT1L interaction (Homo sapiens, UniProt P42568).
T1 construct: human AF9 AHD domain (475–568); made in house; host or cells: E. coli BL21(DE3)
T1 sequence (P42568 475-568): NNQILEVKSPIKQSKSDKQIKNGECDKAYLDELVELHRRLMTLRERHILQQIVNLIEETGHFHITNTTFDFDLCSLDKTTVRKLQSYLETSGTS
As to the kind of experiment: AlphaLisa assay, AF9-DOT1L interaction. The class given is binding. As to conditions: MBP-protein 5 nM, biotinylated peptide 40 nM, 3 independent experiments with standard deviation, read-out: IC50 (μM) against the AF9-DOT1L interaction. The source says:
An AlphaLisa assay we previously developed was used for compound screening for inhibitors of the AF9-DOT1L interaction. The PPI takes the DOT1L-peptide coated donor beads and AF9 AHD coated acceptor beads together. The donor beads are illuminated with a laser beam (680 nm) to generate singlet oxygen radicals, which activate the adjacent acceptor beads to produce luminescence at 615 nm. When a compound can disrupt such PPI and separate the donor and acceptor beads, the highly unstable radicals are rapidly quenched by water without generating luminescence.
(§1) The cDNA for the human AF9 AHD domain (475–568) and ENL AHD domain (489–559) was synthesized (by Genscript, Piscataway, NJ, USA) and inserted into the pMAL c5X expression plasmid. The DOT1L peptide (Biotin-AHX-[…]) and AF4 peptide (Biotin-AHX-[…]) for the Alpha assay were purchased from Genscript.
(§2) Alpha assays were developed in our previous publication, using a Perkin-Elmer AlphaLisa anti-MBP kit, which contains streptavidin donor beads and anti-MBP acceptor beads. Briefly, the assay was performed using a MBP-protein (5 nM), a biotinylated peptide (40 nM), and increasing concentrations of a compound in 25 µL buffer (PBS with 0.5% BSA, pH 7.5) in 384-well plates according to the manufacturer’s protocol and measured with a Tecan SPARK microplate reader. Data were imported into Prism (version 5.0), and IC50 values from 3 independent experiments with standard deviation were obtained by using a standard dose-response curve fitting.
On the technique in general: In Alpha technology, singlet oxygen from a donor bead excites a nearby acceptor bead.

Assay [2] deals with MV4;11. As to the kind of experiment: Antiproliferation assay (XTT), MV4;11.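 Further: EC50 values in Micromolar not Nanomolar.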 It counts as cell-based. As to conditions: Homo sapiens, MV4-11, 168 h, 7 days incubation, read-out: Antitumor activity EC50, MV4;11. The protocol: (§3) The antitumor activity of selected compounds was evaluated against the proliferation of a panel of MLL-r leukemia and other cancer cells. MV4;11 and Molm-13 leukemia cells contain MLL-AF4 and MLL-AF9 fusion oncogenes, respectively. NB4 and HL60 are AML cells without MLL translocation. Hela (cervical cancer) is a solid tumor cell line. […] The anti-proliferation activity of these compounds against other AML cells (i.e., NB4 and HL60) might be due to their inhibition of SEC-mediated gene expression (e.g., Myc), as observed in our previous studies.
(§4) Proliferation inhibition assays were performed using an XTT assay kit (Biotium, Fremont, CA, USA) following our previous methods. The antiproliferation EC50 values were determined using Prism 5 and the reported results were the mean values of at least three independent experiments. The incubation time for all compounds was 7 days.
On the technique in general: Tetrazolium dyes change colour on reduction, which living cells bring about.

Assay [3] has as its system Molm13. In words: Antiproliferation assay (XTT), Molm-13.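 Further: EC50 values in Micromolar not Nanomolar.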 It counts as cell-based. Conditions: Homo sapiens, MOLM-13, 168 h, 7 days incubation, read-out: Antitumor activity EC50, Molm13. The procedure:
as §3, §4

Assay [4] relates to NB4. In words: Antiproliferation assay (XTT), NB4.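 Further: EC50 values in Micromolar not Nanomolar.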 The class given is cell-based. As to conditions: Homo sapiens, NB-4, 168 h, 7 days incubation, read-out: Antitumor activity EC50, NB4. The protocol:
as §3, §4

Assay [5] has as its system HL60. As to the kind of experiment: Antiproliferation assay (XTT), HL60.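 Further: EC50 values in Micromolar not Nanomolar.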 Conditions: Homo sapiens, HL-60, 168 h, 7 days incubation, read-out: Antitumor activity EC50, HL60. It counts as cell-based. The procedure:
as §3, §4

The test system of assay [6] is Hela. As to the kind of experiment: Antiproliferation assay (XTT), Hela. The class given is cell-based. As to conditions: 7 days incubation; for EC50: Homo sapiens, HeLa, 168 h, read-out: Antitumor activity EC50, Hela. The procedure: as §3, §4
Assay [7] deals with panel of MLL-r leukemia and other cancer cells. In words: Antiproliferation assay (XTT), panel of MLL-r leukemia and other cancer cells. The class given is cell-based. As to conditions: 7 days; for Inhibition of tumor cell proliferation (in words): MV4;11, Molm-13, NB4, HL60 and Hela cells; for EC50: 168 h, MV4;11, Molm-13, NB4 and HL60 cells, read-out: Antitumor activity EC50, span over MLL-r leukemia and AML cells. The procedure: as §3, §4

Assay [8] deals with T2, AF9-AF4 (Homo sapiens, UniProt P42568).
T2 construct: human AF9 AHD domain (475–568); made in house; host or cells: E. coli BL21(DE3)
T2 sequence (P42568 475-568): T1 sequence (P42568 475-568)
In words: AlphaLisa assay, AF9-AF4 interaction. It counts as binding. As to conditions: AF9 AHD, AF4 peptide. The procedure:
(§5) Transcription cofactor AF4, which is the most frequent (~35%) fusion protein in MLL1-r leukemia, is another binding partner of AF9/ENL [35, 36, 37]. The AF9/ENL-AF4 interactions are essential for the formation of SEC, which causes aberrant gene expression in MLL-r leukemia and other AMLs. Using our previously developed AlphaLisa assays, selected compounds were tested for their ability to inhibit the PPIs between AF9 or ENL and AF4.
as §1, §2

For assay [9], the target named is T3, ENL-AF4 (Homo sapiens, UniProt Q03111).
T3 construct: ENL AHD domain (489–559); made in house; host or cells: E. coli BL21(DE3)
T3 sequence (Q03111 489-559): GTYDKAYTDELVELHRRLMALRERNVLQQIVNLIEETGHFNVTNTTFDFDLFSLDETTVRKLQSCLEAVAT
As to the kind of experiment: AlphaLisa assay, ENL-AF4 interaction. It counts as binding. As to conditions: ENL AHD, AF4 peptide. The procedure:
as §5, §1, §2

Where a name gives a salt, the structure may show the parent alone.

In the case of `O=C(NCC1CCNCC1)c1cc2cc(-c3ccc(N4CCCCC4)cc3)ccc2[nH]1` [Compound 15], the IC50 in [1] is 3.6 ± 0.3 µM. Besides, the EC50 in assay [2] is 22 ± 2 µM; in assay [3], 10 ± 1.6 µM; in assay [4], greater than 50 µM; in assay [5], 50 µM; in assay [6], greater than 50 µM.

For `Cl.NCc1ccc(-c2ccc3cc(C(=O)NCC4CCNCC4)oc3c2)cc1` [Compound 72, 6-(4-(Aminomethyl)phenyl)-N-(piperidin-4-ylmethyl)-benzofuran-2-carboxamide hydrochloride], the IC50 in [1] is greater than 30 µM. In addition, the EC50 was roughly 50 µM in assay [2]; greater than 50 µM in [3]; greater than 50 µM in assay [4]; greater than 50 µM in assay [5]; greater than 50 µM in assay [6]. The “Inhibition of tumor cell proliferation (in words)” value in assay [7] is listed as “None of these three compounds inhibited tumor cell proliferation”.

As to `O=C(NCC1CCNCC1)c1cc2cc(-c3ccc(N4CCCC4)cc3)ccc2[nH]1` [Compound 16], the IC50 turned out to be 2.7 ± 0.2 µM in assay [1], 1.9 ± 0.1 µM in [8] and 1.9 ± 0.3 µM in assay [9].

For `O=C(NCC1CCNCC1)c1c[nH]c2cc(-c3ccc(N4CCCC4)cc3)ccc12` [Compound 12, 6-(4-(Pyrrolidin-1-yl)phenyl)-N-(piperidin-4-ylmethyl)-1H-indole-3-carboxamide hydrochloride], the IC50 in assay [1] came to 2.9 ± 0.1 µM. The EC50 in assay [2] was 26 ± 1.8 µM; in assay [3], 50 µM; in assay [4], 50 µM; in assay [5] it was 50 µM; in [6], greater than 50 µM.

For the molecule `O=C(NCC1CCNCC1)c1cc2cc(-c3cn[nH]c3)ccc2[nH]1` [Compound 22], the IC50 in [1] was greater than 30 µM; in [8] it was greater than 50 µM; in [9], greater than 50 µM. Also, the “IC50 AF9-AF4” value in assay [8] is “did not inhibit”. Besides, the “IC50 ENL-AF4” value in [9] was “did not inhibit”. Also, the EC50 in [2], in [3], in assay [4], in assay [5] and in assay [6] was greater than 50 µM each time. The “Inhibition of tumor cell proliferation (in words)” value in assay [7] is given as “None of these three compounds inhibited tumor cell proliferation”.

For the molecule `Cl.O=C(NCC1CCNCC1)c1coc2cc(-c3ccc(N4CCCCC4)cc3)ccc12` [Compound 57, 6-(4-(Piperidin-1-yl)phenyl)-N-(piperidin-4-ylmethyl)-benzofuran-3-carboxamide hydrochloride], the IC50 in [1] was determined as 7.2 ± 0.4 µM. Besides, the concentration giving a half-maximal response (EC50) in assay [2] is 21 ± 1.2 µM; in [3], 13 ± 1.7 µM; in assay [4] it was 11 ± 0.4 µM; in [5], 9.7 ± 1.2 µM; in [6], 50 µM; in assay [7] it was 9.7 to 21 µM. The “Antitumor activity EC50, Hela” value in assay [6] is listed as “did not affect the growth of Hela cells”.

Consider `O=C(NCC1CCNCC1)c1c[nH]c2cc(-c3ccc(N4CCCCC4)cc3)ccc12` [Compound 2, 6-(4-(Piperidin-1-yl)phenyl)-N-(piperidin-4-ylmethyl)-1H-indole-3-carboxamide hydrochloride], for which the 50% inhibitory concentration (IC50) in assay [1] came to 4.5 ± 0.01 µM. For the same molecule, the EC50 in assay [2] is 33 ± 2.8 µM; in assay [3], 29 ± 2.5 µM; in assay [4], 32 ± 2 µM; in [5], 50 µM; in assay [6], greater than 50 µM.

Consider `O=C(NCC1CCNCC1)c1cc2ccc(-c3ccc(N4CCCC4)cc3)cc2s1` [Compound 25, 6-(4-(Pyrrolindin-1-yl)phenyl)-N-(piperidin-4-ylmethyl)-benzo[b]thiophene-2-carboxamide hydrochloride], for which the 50% inhibitory concentration (IC50) in assay [1] was determined as 5.3 ± 0.1 µM; in assay [8] it was 7.7 ± 0.9 µM; in assay [9] it was 7.9 ± 1.5 µM. The EC50 in assay [2] is 8.7 ± 0.9 µM; in [3], 9.4 ± 0.8 µM; in assay [4], 10 ± 0.5 µM; in assay [5] it was 26 ± 2.6 µM; in assay [6], 50 µM; in assay [7], 8.7 to 26 µM.
